The target in this experiment is T1, hFAP (hFAP-HT1080 cells) (Homo sapiens, UniProt Q12884).
T1 construct: expressed in transfected cells; host or cells: HT1080 (human fibrosarcoma), lentiviral transduction
T1 sequence (Q12884 1-760): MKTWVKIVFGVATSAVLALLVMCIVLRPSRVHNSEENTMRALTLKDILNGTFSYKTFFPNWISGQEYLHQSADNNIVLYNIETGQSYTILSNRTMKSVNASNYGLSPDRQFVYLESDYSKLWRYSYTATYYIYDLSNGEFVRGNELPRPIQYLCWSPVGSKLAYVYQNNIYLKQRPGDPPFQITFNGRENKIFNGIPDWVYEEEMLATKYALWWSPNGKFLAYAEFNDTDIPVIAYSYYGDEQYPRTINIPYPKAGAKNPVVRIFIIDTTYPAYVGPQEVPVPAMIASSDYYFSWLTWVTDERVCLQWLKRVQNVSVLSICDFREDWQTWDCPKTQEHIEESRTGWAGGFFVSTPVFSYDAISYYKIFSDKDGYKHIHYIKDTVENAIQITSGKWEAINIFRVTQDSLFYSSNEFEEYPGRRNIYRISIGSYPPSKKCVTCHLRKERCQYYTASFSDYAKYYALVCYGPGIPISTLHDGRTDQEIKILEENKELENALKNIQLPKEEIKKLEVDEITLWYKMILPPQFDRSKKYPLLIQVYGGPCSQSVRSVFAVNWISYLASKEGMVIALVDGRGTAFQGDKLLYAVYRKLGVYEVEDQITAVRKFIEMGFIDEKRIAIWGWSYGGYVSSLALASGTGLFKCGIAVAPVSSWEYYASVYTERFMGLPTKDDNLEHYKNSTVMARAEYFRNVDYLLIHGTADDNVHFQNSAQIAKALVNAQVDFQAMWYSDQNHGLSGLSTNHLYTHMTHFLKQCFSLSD
The experiment is described as follows: saturation binding to hFAP-HT1080 cells. As to conditions: 60 min, 37 °C. Here is the method:
Saturation binding (n ≥ 3, in triplicates) was performed to estimate thermodynamic dissociation constants (KD) and number of binding sites (Bmax). hFAP-HT1080 were cultured under the conditions described above. On the day of the experiment, 48-well plates were kept at 37 °C in an incubation chamber. The medium was replaced with 200 µL CO2-independent medium, (Gibco #18045088, ThermoFisher Germany) for total binding (TB) conditions. For the assessment of nonspecific binding (NSB), the same medium was used, containing 14 µM of FAPI-04 (in DMSO, resulting in 0.007% v/v). After 15 min preincubation for TB/NSB, 200 µL of each eight serial 1:1 dilutions (75 to 0.12 nM) of the respective radioligand were added (in triplicate), resulting in a final concentration per well of 35–0.06 nM. Cells were incubated with the respective radioligand for 60 min at 37 °C. The incubation medium was discarded and the wells washed with ice-cold PBS (2x ~ 30 s). The cells were then lysed with 500 µL 0.1 M NaOH + 1% SDS. For radioactivity detection, 400 µL of lysate was measured in a gamma counter (Perkin Elmer Wizard 1480). Additionally, binding to polystyrene in absence of cells was determined in 400 µL of lysate, along with the activity of all dilutions (50 µL). However, intrinsic plastic adherence of both compounds was very low. All counts were decay-corrected to a reference time (end of radiolabeling). Protein content was determined in an additional plate, subjected to the same conditions (pre-incubation, incubation and washing) by BCA assay and a mean value (µg/mL) used for this particular dataset (all replicate plates). From CPM measurements, final values (pmol/mg protein) were calculated using mean protein content and molar activity. Similarly, lysates from a random plate were subjected to fluorescent detection. For that purpose, 100 µL were pipetted bubble free into a transparent bottom 96 well imaging plate (Greiner Bio-One, µclear #655087). The plate was then imaged on a Typhoon 9500 bio imager (GE, USA) using either the Cy5 or IR-long filter-set (350–500 PMT voltage). From these images, fluorescence density (counts/mm^2) was determined (Bio-Rad, Quantity One 4.6.8). All processed data was then subjected to non-linear iterative curve fitting (GraphPad Prism 10) to yield Bmax (in pmol/mg protein or CNT/mm^2) and KD (in nM).

[1] abbreviates: n = 1, read-out: KD, fluorescent label detection, best fit.
Where [2] appears, read: nonspecific binding with 14 µM FAPI-04, n = 3.
Where [3] appears, read: nonspecific binding with 14 µM FAPI-04, n = 3, read-out: KD, radioactive label detection, best fit.

Like-named read-outs stand apart in the source and are kept apart here.

The Kd is the equilibrium constant for the complex coming apart. As to `CN(CCCN1CCN(C(=O)[C@H](CCCCNC(=O)CC[C@H](C(=O)[O-])N2CCN(CC(=O)[O-])CCN(CC(=O)[O-])CC2)NC(=O)CCOCCOCCOCCOCCNC(=O)CCCCC[N+]2=C(C=CC=CC=C3N(CCCS(=O)(=O)O)c4ccc(S(=O)(=O)O)cc4C3(C)C)C(C)(CCCS(=O)(=O)O)c3cc(S(=O)(=O)[O-])ccc32)CC1)c1ccc2nccc(C(=O)NCC(=O)N3CC(F)(F)C[C@H]3C#N)c2c1.[68Ga+3]` (some centres unmarked) [[^68Ga]Ga-NODAGA-FAP647], where the note is “n = 1”, the “Bmax, fluorescent label detection, best fit” value is recorded as 4.8 * 10^5 AU. Also, the Kd came to 0.76 nM under setting [1] and 0.99 nM under setting [3]. The “Bmax, radioactive label detection, best fit” value under setting [2] turned out to be 1.63 pmol/mg/protein.

For the compound `CN(CCCN1CCN(C(=O)[C@H](CCCCNC(=O)CC[C@H](C(=O)[O-])N2CCN(CC(=O)[O-])CCN(CC(=O)[O-])CC2)NC(=O)CCOCCOCCOCCOCCNC(=O)CCCCCN2C(=CC=C3CCCC(C=CC4=[N+](CCCCS(=O)(=O)[O-])c5ccc(S(=O)(=O)O)cc5C4(C)C)=C3Oc3ccc(S(=O)(=O)O)cc3)C(C)(C)c3cc(S(=O)(=O)O)ccc32)CC1)c1ccc2nccc(C(=O)NCC(=O)N3CC(F)(F)C[C@H]3C#N)c2c1.[68Ga+3]` [[^68Ga]Ga-NODAGA-FAP800], for the setting “n = 1”, the “Bmax, fluorescent label detection, best fit” value is reported as 5.7 * 10^5 AU. Also, the dissociation constant Kd under setting [1] is 1.24 nM and the Kd under setting [3] was determined as 1.65 nM. In addition, under setting [2], the “Bmax, radioactive label detection, best fit” value worked out at 1.41 pmol/mg/protein.

The values above are taken from publication PMC12686243, “Synthesis and preclinical evaluation of FAP-targeting radiotracers for PET and optical imaging” (EJNMMI Radiopharmacy and Chemistry, 2025).
